Experiment [1] has as its system MCF-7 human breast cancer cells. The experiment can be described thus: MTT cell viability assay, MCF-7. In kind it is cell-based. Particulars: MCF7, MCF-7, MTT, 24 h incubation. On the procedure: Cell culture MCF-7, MDA-MB-231 human breast cancer cells, and fibroblasts skin cells were purchased from the ATCC—American Type Culture Collection. All cell lines were maintained in DMEM (Corning, Kennebunk, ME, USA). The medium was supplemented with 10% fetal bovine serum—FBS (Eurx, Gdansk, Poland) and 1% antimicrobial substances: penicillin–streptomycin (Corning, Kennebunk, ME, USA). The incubator asserted appropriate growth conditions required for these cell lines: 5% of CO2, at 37 °C, with the humidity between 90–95%. Cells were seeded in 100 mm round dishes. An amount of 0.05% trypsin containing 0.02% EDTA (Corning, Kennebunk, ME, USA) and phosphate-buffered saline (PBS) without calcium and magnesium (Corning, Kennebunk, ME, USA) was used to detach cells from a plate once 80–90% cell confluence was achieved. In the next step, cells were reseeded in six-well plates (density—5 × 10^5 of cells per well) in 1 mL of DMEM after a 24 h incubation used in the presented tests.
To examine the effect of Les-3331 on cell viability, the MTT assay was performed. […] The absorbance was measured using Spectrophotometer UV-VIS Helios Gamma (Unicam/ThermoFisher Scientific Inc., Waltham, MA, USA) at a wavelength of 570 nm. The obtained absorbance in untreated control cells was taken as 100%, while the survival of the cells incubated with tested compounds presented as a percentage of the control value.
(In general: Tetrazolium dyes change colour on reduction, which living cells bring about.)

The subject of the next experiment is MDA-MB-231 cells. Briefly: Annexin V binding assay (flow cytometry), MDA-MB-231. In kind it is cell-based, human. Particulars: 24 h. As to the method: The effect of Les-3331 and reference drug on the induction of apoptosis process in human breast cancer cell lines was evaluated using a flow cytometer (BD FACSCanto II, Becton Dickinson Biosciences Systems, San Jose, CA, USA) and Annexin V binding Apoptosis Detection Kit II (BD Biosciences, San Diego, CA, USA). The Les-3331 and reference drug were used in 1 µM and 5 µM concentrations. The test was carried out after 24 h incubation with the tested compounds according to the manufacturer’s protocol and was previously described by our research group. Analysis of the obtained results was performed using FACSDiva software (version 6.1.3, BD Biosciences Systems, San Jose, CA, USA). The equipment was calibrated with BD Cytometer Setup and Tracking Beads (BD Biosciences, San Diego, CA, USA).
For orientation: A flow cytometer gives signals particle by particle.

A further experiment has as its system caspase-9. Briefly: Caspase-9 concentration in MDA-MB-231 cell lysates (ELISA). In kind it is cell-based, human. The note with it: 24 h, control 65.073 ng/mL. On the procedure: (§1) High sensitivity assay kits (EIAab Science Co., Ltd., Wuhan, China; Abcam plc., Cambridge, United Kingdom; Cloud-Clone Corp., Katy, TX, USA) were used to determine the concentrations of selected proteins in cell lysates after 24 h incubation with novel compound and reference drug in 1 µM and 5 µM concentrations. In brief, after trypsinization, cells were washed thrice with cold PBS and centrifuged at 1000× g for 5 min at 4 °C. Then, cells (1.5 × 10^6) were suspended in lysis buffer for whole-cell lysates. After the second centrifugation, cellular supernatants were frozen immediately at −70 °C. Untreated cancer cells were taken as a control.
(§2) The microtiter plates provided in the kits were pre-coated with an antibody specific to the analyzed antigen. The tests were carried out according to the manufacturer’s protocols.

The test system of another experiment is caspase-8. The experiment can be described thus: Caspase-8 concentration in MCF-7 cell lysates (ELISA). In kind it is cell-based, human. The note with it: 24 h, control 0.901 ng/mL. As to the method: as §1, §2
Background: An ELISA detects its analyte on a solid surface through an enzyme-linked reagent.

The subject of a further experiment is Beclin-1. The experiment can be described thus: Beclin-1 concentration in MCF-7 cell lysates (ELISA). In kind it is cell-based, human. The note with it: 24 h, control 7.965 ng/mL. On the procedure: High sensitivity assay kits (EIAab Science Co., Ltd., Wuhan, China; Abcam plc., Cambridge, United Kingdom; Cloud-Clone Corp., Katy, TX, USA) were used to determine the concentrations of selected proteins in cell lysates […] In brief, after trypsinization, cells were washed thrice with cold PBS and centrifuged at 1000× g for 5 min at 4 °C. Then, cells (1.5 × 10^6) were suspended in lysis buffer for whole-cell lysates. After the second centrifugation, cellular supernatants were frozen immediately at −70 °C. Untreated cancer cells were taken as a control.
as §2

Another experiment concerns topoisomerase IIα. Briefly: Flow cytometric analysis of anti-topoisomerase IIα antibody, MCF-7. In kind it is cell-based, human. Particulars: 24 h. As to the method: To confirm the ELISA results, flow cytometric analysis of Top II activity using an anti-topoisomerase IIα antibody conjugated with phycoerythrin (PE) was performed. The Les-3331 and etoposide were used at 1 µM and 5 µM concentrations. Cancer cells were incubated for 24 h with tested compounds and the assay was carried out in accordance with the manufacturer’s protocol. Briefly, cells were centrifuged and resuspended in 4% formaldehyde. Then, cells were incubated at RT for 15 min and subsequently washed with excess PBS and centrifuged. Thereafter, ice-cold 90% methanol was added to the cells and they were incubated for 1 h in an ice bath. Next, cells were washed with excess PBS and centrifuged again. In the meantime, the primary antibody was diluted (1:100) in PBS. Then, cells were resuspended in the prepared primary antibody (100 µL) and incubated at RT, protected from light, for 1 h. Finally, cells were washed and resuspended in PBS (300 µL). The prepared samples were measured immediately. Analysis of the obtained results was performed using a flow cytometer (BD FACSCanto II, Becton Dickinson Biosciences Systems, San Jose, CA, USA) and FACSDiva software (v6.1.3, BD Biosciences Systems, San Jose, CA, USA). The equipment was calibrated with BD Cytometer Setup and Tracking Beads (BD Biosciences, San Diego, CA, USA).

A value given as a limit tells only on which side of the number the result lay.

Compound `CC(C)C(C(=O)O)N1C(=O)/C(=C/C(Cl)=C/c2ccc([N+](=O)[O-])cc2)SC1=S` (stereo not shown) [Les-3331, 2-{5-[(Z,2Z)-2-chloro-3-(4-nitrophenyl)-2-propenylidene]-4-oxo-2-thioxothiazolidin-3-yl}-3-methylbutanoic acid] gave an IC50 in experiment [1] of 5.02 µM. Also, the “% of late and early apoptotic cells” value in the experiment on MDA-MB-231 cells (MDA-MB-231, 1 µM) turned out to be 5.1%; with MDA-MB-231 cells (MDA-MB-231, 5 µM), 18.1%. In addition, the Casp-9 concentration with caspase-9 (MDA-MB-231, 1 µM) is on record as 84.300 ng/mL; in the experiment with caspase-9 (MDA-MB-231, 5 µM) it was 92.523 ng/mL. For the same compound, the Casp-8 concentration in the experiment on caspase-8 (1 µM) is recorded as 1.050 ng/mL; with caspase-8 (5 µM), 1.253 ng/mL. Besides, the Beclin-1 concentration in the experiment with Beclin-1 (1 µM) was 7.435 ng/mL; in the experiment with Beclin-1 (5 µM), 3.948 ng/mL. For the same compound, the “% of cells without anti-topoisomerase IIα antibody” value in the experiment with topoisomerase IIα (MCF-7, 1 µM) came out at 34.1%; with topoisomerase IIα (MCF-7, 5 µM), 49.2%.

`COc1cc([C@@H]2c3cc4c(cc3[C@@H](O[C@@H]3O[C@@H]5CO[C@@H](C)O[C@H]5[C@H](O)[C@H]3O)[C@H]3COC(=O)[C@H]23)OCO4)cc(OC)c1O` [Etoposide, reference compound] yielded a half-maximal inhibitory concentration (IC50) in experiment [1] of over 50 µM. Also, the “% of late and early apoptotic cells” value in the experiment with MDA-MB-231 cells (MDA-MB-231, 1 µM) was found to be 4.7%; in the experiment with MDA-MB-231 cells (MDA-MB-231, 5 µM) it was 7.2%. Moreover, the Casp-9 concentration was 86.953 ng/mL with caspase-9 (MDA-MB-231, 1 µM) and 93.620 ng/mL in the experiment with caspase-9 (MDA-MB-231, 5 µM). Moreover, the Casp-8 concentration with caspase-8 (1 µM) is reported as 0.812 ng/mL; with caspase-8 (5 µM), 0.951 ng/mL. For the same compound, the figures for the Beclin-1 concentration in the experiment on Beclin-1 (1 µM) and in the experiment on Beclin-1 (5 µM) were 7.848 ng/mL and 6.686 ng/mL, respectively. The “% of cells without anti-topoisomerase IIα antibody” value was 8.6% with topoisomerase IIα (MCF-7, 1 µM) and 11.8% with topoisomerase IIα (MCF-7, 5 µM).

For orientation: IC50 means the point on the concentration scale where inhibition reaches its midpoint. Low readings indicate higher potency, high ones lower potency.

The values above are taken from PMC9032233, “2-{5-[(Z,2Z)-2-Chloro-3-(4-nitrophenyl)-2-propenylidene]-4-oxo-2-thioxothiazolidin-3-yl}-3-methylbutanoic Acid as a Potential Anti-Breast Cancer Molecule” (International Journal of Molecular Sciences, 2022).
